From the NIST ThermoML archive (doi:10.1016/j.jct.2011.08.016)
± gives the expanded uncertainty stated by the source.

Assay: xn = mol fraction of the nth substance listed
Conditions: Liquid, Vibrating tube method

CCCCCCCCCC [decane] + CCCCCCCC
mass density (343.11 K, 1000 kPa, x2 = 0.0616): 691.23 ± 0.41 kg/m3
mass density (343.11 K, 2000 kPa, x2 = 0.0616): 692.25 ± 0.42 kg/m3
mass density (343.11 K, 3000 kPa, x2 = 0.0616): 693.27 ± 0.42 kg/m3
mass density (343.11 K, 4000 kPa, x2 = 0.0616): 694.28 ± 0.43 kg/m3
mass density (343.11 K, 5000 kPa, x2 = 0.0616): 695.27 ± 0.43 kg/m3
mass density (343.11 K, 6000 kPa, x2 = 0.0616): 696.28 ± 0.44 kg/m3
mass density (343.11 K, 7000 kPa, x2 = 0.0616): 697.25 ± 0.44 kg/m3
mass density (343.11 K, 8000 kPa, x2 = 0.0616): 698.24 ± 0.45 kg/m3
mass density (343.11 K, 9000 kPa, x2 = 0.0616): 699.21 ± 0.45 kg/m3
mass density (343.11 K, 10000 kPa, x2 = 0.0616): 700.15 ± 0.46 kg/m3
mass density (343.11 K, 10990 kPa, x2 = 0.0616): 701.09 ± 0.46 kg/m3
mass density (343.11 K, 12000 kPa, x2 = 0.0616): 702.04 ± 0.47 kg/m3
mass density (343.11 K, 13000 kPa, x2 = 0.0616): 702.94 ± 0.47 kg/m3
mass density (343.11 K, 14000 kPa, x2 = 0.0616): 703.83 ± 0.48 kg/m3
mass density (343.11 K, 15000 kPa, x2 = 0.0616): 704.71 ± 0.49 kg/m3
mass density (343.11 K, 16000 kPa, x2 = 0.0616): 705.59 ± 0.49 kg/m3
mass density (343.11 K, 17000 kPa, x2 = 0.0616): 706.44 ± 0.5 kg/m3
mass density (343.11 K, 18000 kPa, x2 = 0.0616): 707.29 ± 0.5 kg/m3
mass density (343.11 K, 19000 kPa, x2 = 0.0616): 708.13 ± 0.51 kg/m3
mass density (343.11 K, 20000 kPa, x2 = 0.0616): 708.97 ± 0.52 kg/m3
mass density (343.11 K, 21000 kPa, x2 = 0.0616): 709.77 ± 0.52 kg/m3
mass density (343.11 K, 22000 kPa, x2 = 0.0616): 710.54 ± 0.53 kg/m3
mass density (343.11 K, 23000 kPa, x2 = 0.0616): 711.34 ± 0.53 kg/m3
mass density (343.11 K, 24000 kPa, x2 = 0.0616): 712.11 ± 0.54 kg/m3
mass density (343.11 K, 25000 kPa, x2 = 0.0616): 712.86 ± 0.55 kg/m3
mass density (343.12 K, 1000 kPa, x2 = 0.2801): 686 ± 0.42 kg/m3
mass density (343.12 K, 1000 kPa, x2 = 0.5314): 678.98 ± 0.42 kg/m3
mass density (343.12 K, 1000 kPa, x2 = 0.7736): 671.23 ± 0.42 kg/m3
mass density (343.12 K, 2000 kPa, x2 = 0.2801): 686.96 ± 0.42 kg/m3
mass density (343.12 K, 2000 kPa, x2 = 0.5314): 680.05 ± 0.42 kg/m3
mass density (343.12 K, 2000 kPa, x2 = 0.7736): 672.36 ± 0.43 kg/m3
mass density (343.12 K, 3000 kPa, x2 = 0.2801): 688 ± 0.42 kg/m3
mass density (343.12 K, 3000 kPa, x2 = 0.5314): 681.13 ± 0.43 kg/m3
mass density (343.12 K, 3000 kPa, x2 = 0.7736): 673.44 ± 0.43 kg/m3
mass density (343.12 K, 4000 kPa, x2 = 0.2801): 689.01 ± 0.43 kg/m3
mass density (343.12 K, 4000 kPa, x2 = 0.5314): 682.2 ± 0.43 kg/m3
mass density (343.12 K, 4000 kPa, x2 = 0.7736): 674.54 ± 0.44 kg/m3
mass density (343.12 K, 5000 kPa, x2 = 0.2801): 690.04 ± 0.43 kg/m3
mass density (343.12 K, 5000 kPa, x2 = 0.5314): 683.26 ± 0.44 kg/m3
mass density (343.12 K, 5000 kPa, x2 = 0.7736): 675.64 ± 0.44 kg/m3
mass density (343.12 K, 6000 kPa, x2 = 0.2801): 691.09 ± 0.44 kg/m3
mass density (343.12 K, 6000 kPa, x2 = 0.5314): 684.32 ± 0.44 kg/m3
mass density (343.12 K, 6000 kPa, x2 = 0.7736): 676.76 ± 0.45 kg/m3
mass density (343.12 K, 7000 kPa, x2 = 0.2801): 692.03 ± 0.44 kg/m3
mass density (343.12 K, 7000 kPa, x2 = 0.5314): 685.36 ± 0.45 kg/m3
mass density (343.12 K, 7000 kPa, x2 = 0.7736): 677.83 ± 0.45 kg/m3
mass density (343.12 K, 8000 kPa, x2 = 0.2801): 693.02 ± 0.45 kg/m3
mass density (343.12 K, 8000 kPa, x2 = 0.5314): 686.38 ± 0.45 kg/m3
mass density (343.12 K, 8000 kPa, x2 = 0.7736): 678.88 ± 0.46 kg/m3
mass density (343.12 K, 9000 kPa, x2 = 0.2801): 694 ± 0.45 kg/m3
mass density (343.12 K, 9000 kPa, x2 = 0.5314): 687.39 ± 0.46 kg/m3
mass density (343.12 K, 9000 kPa, x2 = 0.7736): 679.92 ± 0.46 kg/m3
mass density (343.12 K, 10000 kPa, x2 = 0.2801): 694.95 ± 0.46 kg/m3
mass density (343.12 K, 10000 kPa, x2 = 0.5314): 688.38 ± 0.46 kg/m3
mass density (343.12 K, 10000 kPa, x2 = 0.7736): 680.93 ± 0.47 kg/m3
mass density (343.12 K, 10990 kPa, x2 = 0.2801): 695.95 ± 0.47 kg/m3
mass density (343.12 K, 10990 kPa, x2 = 0.5314): 689.37 ± 0.47 kg/m3
mass density (343.12 K, 10990 kPa, x2 = 0.7736): 681.98 ± 0.48 kg/m3
mass density (343.12 K, 12000 kPa, x2 = 0.2801): 696.9 ± 0.47 kg/m3
mass density (343.12 K, 12000 kPa, x2 = 0.5314): 690.34 ± 0.48 kg/m3
mass density (343.12 K, 12000 kPa, x2 = 0.7736): 682.98 ± 0.48 kg/m3
mass density (343.12 K, 13000 kPa, x2 = 0.2801): 697.84 ± 0.48 kg/m3
mass density (343.12 K, 13000 kPa, x2 = 0.5314): 691.29 ± 0.48 kg/m3
mass density (343.12 K, 13000 kPa, x2 = 0.7736): 683.94 ± 0.49 kg/m3
mass density (343.12 K, 14000 kPa, x2 = 0.2801): 698.78 ± 0.48 kg/m3
mass density (343.12 K, 14000 kPa, x2 = 0.5314): 692.24 ± 0.49 kg/m3
mass density (343.12 K, 14000 kPa, x2 = 0.7736): 684.91 ± 0.49 kg/m3
mass density (343.12 K, 15000 kPa, x2 = 0.2801): 699.72 ± 0.49 kg/m3
mass density (343.12 K, 15000 kPa, x2 = 0.5314): 693.17 ± 0.49 kg/m3
mass density (343.12 K, 15000 kPa, x2 = 0.7736): 685.89 ± 0.5 kg/m3
mass density (343.12 K, 16000 kPa, x2 = 0.2801): 700.6 ± 0.5 kg/m3
mass density (343.12 K, 16000 kPa, x2 = 0.5314): 694.09 ± 0.5 kg/m3
mass density (343.12 K, 16000 kPa, x2 = 0.7736): 686.84 ± 0.51 kg/m3
mass density (343.12 K, 17000 kPa, x2 = 0.2801): 701.51 ± 0.5 kg/m3
mass density (343.12 K, 17000 kPa, x2 = 0.5314): 695 ± 0.51 kg/m3
mass density (343.12 K, 17000 kPa, x2 = 0.7736): 687.8 ± 0.51 kg/m3
mass density (343.12 K, 18000 kPa, x2 = 0.2801): 702.35 ± 0.51 kg/m3
mass density (343.12 K, 18000 kPa, x2 = 0.5314): 695.89 ± 0.51 kg/m3
mass density (343.12 K, 18000 kPa, x2 = 0.7736): 688.72 ± 0.52 kg/m3
mass density (343.12 K, 19000 kPa, x2 = 0.2801): 703.17 ± 0.51 kg/m3
mass density (343.12 K, 19000 kPa, x2 = 0.5314): 696.76 ± 0.52 kg/m3
mass density (343.12 K, 19000 kPa, x2 = 0.7736): 689.61 ± 0.53 kg/m3
mass density (343.12 K, 20000 kPa, x2 = 0.2801): 704.02 ± 0.52 kg/m3
mass density (343.12 K, 20000 kPa, x2 = 0.5314): 697.62 ± 0.53 kg/m3
mass density (343.12 K, 20000 kPa, x2 = 0.7736): 690.48 ± 0.54 kg/m3
mass density (343.12 K, 21000 kPa, x2 = 0.2801): 704.83 ± 0.53 kg/m3
mass density (343.12 K, 21000 kPa, x2 = 0.5314): 698.47 ± 0.53 kg/m3
mass density (343.12 K, 21000 kPa, x2 = 0.7736): 691.35 ± 0.54 kg/m3
mass density (343.12 K, 22000 kPa, x2 = 0.2801): 705.63 ± 0.53 kg/m3
mass density (343.12 K, 22000 kPa, x2 = 0.5314): 699.29 ± 0.54 kg/m3
mass density (343.12 K, 22000 kPa, x2 = 0.7736): 692.2 ± 0.55 kg/m3
mass density (343.12 K, 23000 kPa, x2 = 0.2801): 706.41 ± 0.54 kg/m3
mass density (343.12 K, 23000 kPa, x2 = 0.5314): 700.11 ± 0.55 kg/m3
